Results taken from ChEMBL document CHEMBL5518230, “Identification of a Novel Selective CDK9 Inhibitor for the Treatment of CRC: Design, Synthesis, and Biological Activity Evaluation” (J Med Chem, 2024).
pIC50: −log10 of the molar value. The source made the active and inactive calls. The calls are words filed in the database; no cut-off is given here.

Experiments:
[1] = target: Activin receptor type-1B (Homo sapiens) (UniProt P36896); test: Inhibition of human ALK4 at 100 nM by kinase profiling assay relative to control
[2] = target: Cyclin-dependent kinase 9 (Homo sapiens, UniProt P50750); test: Inhibition of CDK9 (unknown origin)
HCT-116 [3] = test: Growth inhibition of human HCT-116 cells incubated for 48 hrs by CCK-8 assay; assay type: functional
[4] = target: cAMP-dependent protein kinase catalytic subunit alpha (Homo sapiens) (UniProt P17612); test: Inhibition of human PKACalpha at 100 nM by kinase profiling assay relative to control
[5] = Half life in Sprague-Dawley rat at 10 mg/kg,po administration measured for 0.25 to 24 hrs by LC-MS/MS analysis; assay type: ADME, organism-based; conditions: in vivo, time 0.25-24 hrs
HT-29 = test: Growth inhibition of human HT-29 cells incubated for 48 hrs by CCK-8 assay; assay type: functional
HCT-116 [6] = test: Induction of apoptosis in human HCT-116 cells assessed as increase in early apoptotic cells incubated for 48 hrs by Annexin V-FITC/PI staining based flow cytometric analysis; assay type: functional, cell-based
[7] = Toxicity in BALB/c mouse xenografted with human HCT-116 cells assessed as liver morphological change at 25 mg/kg,po administrated once daily for 3 weeks by hematoxylin and eosin staining based microscopic analysis; assay type: organism-based; conditions: in vivo, 504 h
[8] = MRT (0 to infinity) in Sprague-Dawley rat at 2 mg/kg,iv administration measured for 0.25 to 24 hrs by LC-MS/MS analysis; assay type: ADME, organism-based; conditions: in vivo, time 0.25-24 hrs
[9] = target: Homeodomain-interacting protein kinase 1 (Homo sapiens) (UniProt Q86Z02); test: Inhibition of human HIPK1 at 100 nM by kinase profiling assay relative to control
[10] = Toxicity in BALB/c mouse xenografted with human HCT-116 cells assessed as spleen morphological change at 50 mg/kg,po administrated once daily for 3 weeks by hematoxylin and eosin staining based microscopic analysis; assay type: organism-based; conditions: in vivo, 504 h
HCT-116 [11] = test: Induction of apoptosis in human HCT-116 cells assessed as downregulation of cleaved caspase-3 expression at 25 to 400 nM incubated for 48 hrs by Western blotting analysis; assay type: functional, cell-based; conditions: dose 25-400 nM
[12] = Apparent volume of distribution in Sprague-Dawley rat at 2 mg/kg,iv administration measured for 0.25 to 24 hrs by LC-MS/MS analysis; assay type: ADME, organism-based; conditions: in vivo, time 0.25-24 hrs, read-out: Vz
HCT-116 [13] = test: Antitumor activity against human HCT-116 cells xenografted in BALB/c mouse assessed as tumor growth inhibition at po administrated once daily for 3 weeks; assay type: functional, organism-based
HCT-116 [14] = test: Antitumor activity against human HCT-116 cells xenografted in BALB/c mouse assessed as downregulation of RNA polymerase II phosphorylation at 25 mg/kg,po administrated once daily for 3 weeks by Western blotting analysis; assay type: functional, organism-based
[15] = target: Cyclin-dependent kinase 12 (Homo sapiens, UniProt Q9NYV4); test: Inhibition of CDK12 (unknown origin)
[16] = AUC (0 to t) in Sprague-Dawley rat at 10 mg/kg,po administration measured for 0.25 to 24 hrs by LC-MS/MS analysis; assay type: ADME, organism-based; conditions: in vivo, time 0.25-24 hrs
[17] = target: Interleukin-1 receptor-associated kinase 1 (Homo sapiens) (UniProt P51617); test: Inhibition of human IRAK1 at 100 nM by kinase profiling assay relative to control
[18] = Cmax in Sprague-Dawley rat at 2 mg/kg,iv administration measured for 0.25 to 24 hrs by LC-MS/MS analysis; assay type: ADME, organism-based; conditions: in vivo, time 0.25-24 hrs
[19] = AUC (0 to infinity) in Sprague-Dawley rat at 2 mg/kg,iv administration measured for 0.25 to 24 hrs by LC-MS/MS analysis; assay type: ADME, organism-based; conditions: in vivo, time 0.25-24 hrs
HCT-116 [20] = test: Induction of apoptosis in human HCT-116 cells assessed as downregulation of RNA polymerase II phosphorylation at Ser2 residue at 25 to 400 nM incubated for 48 hrs by Western blotting analysis; assay type: functional, cell-based; conditions: dose 25-400 nM
[21] = AUC (0 to infinity) in Sprague-Dawley rat at 10 mg/kg,po administration measured for 0.25 to 24 hrs by LC-MS/MS analysis; assay type: ADME, organism-based; conditions: in vivo, time 0.25-24 hrs
[22] = Tmax in Sprague-Dawley rat at 2 mg/kg,iv administration measured for 0.25 to 24 hrs by LC-MS/MS analysis; assay type: ADME, organism-based; conditions: in vivo, time 0.25-24 hrs
[23] = target: Cyclin-dependent kinase 4 (Homo sapiens, UniProt P11802); test: Inhibition of CDK4 (unknown origin)
[24] = MRT (0 to infinity) in Sprague-Dawley rat at 10 mg/kg,po administration measured for 0.25 to 24 hrs by LC-MS/MS analysis; assay type: ADME, organism-based; conditions: in vivo, time 0.25-24 hrs
HCT-116 [25] = test: Antitumor activity against human HCT-116 cells xenografted in BALB/c mouse assessed as downregulation of Mcl-1 expression at 50 mg/kg,po administrated once daily for 3 weeks by Western blotting analysis; assay type: functional, organism-based
[26] = target: TGF-beta receptor type-2 (Homo sapiens) (UniProt P37173); test: Inhibition of human TGFbetaR2 at 100 nM by kinase profiling assay relative to control
[27] = target: Mitogen-activated protein kinase kinase kinase kinase 4 (Homo sapiens) (UniProt O95819); test: Inhibition of human HGK at 100 nM by kinase profiling assay relative to control
[28] = target: Cyclin-dependent kinase 6 (Homo sapiens, UniProt Q00534); test: Inhibition of CDK6 (unknown origin)
[29] = target: Cyclin-dependent kinase 7 (Homo sapiens, UniProt P50613); test: Inhibition of CDK7 (unknown origin)
[30] = target: Cyclin-dependent kinase 5 (Homo sapiens, UniProt Q00535); test: Inhibition of CDK5 (unknown origin)
[31] = Half life in Sprague-Dawley rat at 2 mg/kg,iv administration measured for 0.25 to 24 hrs by LC-MS/MS analysis; assay type: ADME, organism-based; conditions: in vivo, time 0.25-24 hrs
HCT-116 [32] = test: Inhibition of colony formation in human HCT-116 cells assessed as reduction in colony number incubated for 14 days by crystal violet staining assay; assay type: functional, cell-based; conditions: time 14.0 day
[33] = MRT (0 to t) in Sprague-Dawley rat at 2 mg/kg,iv administration measured for 0.25 to 24 hrs by LC-MS/MS analysis; assay type: ADME, organism-based; conditions: in vivo, time 0.25-24 hrs
[34] = target: Inhibitor of nuclear factor kappa-B kinase subunit alpha (Homo sapiens) (UniProt O15111); test: Inhibition of human IKKalpha at 100 nM by kinase profiling assay relative to control
[35] = Toxicity in BALB/c mouse xenografted with human HCT-116 cells assessed as kidney morphological change at 25 mg/kg,po administrated once daily for 3 weeks by hematoxylin and eosin staining based microscopic analysis; assay type: organism-based; conditions: in vivo, 504 h
[36] = Selectivity index, ratio of GI50 for growth inhibition of human CCC-HIE-2 cells to GI50 for growth inhibition of human HCT-116 cells

Chain of TGF-beta receptor type-2 (Homo sapiens) (P37173 whole entry): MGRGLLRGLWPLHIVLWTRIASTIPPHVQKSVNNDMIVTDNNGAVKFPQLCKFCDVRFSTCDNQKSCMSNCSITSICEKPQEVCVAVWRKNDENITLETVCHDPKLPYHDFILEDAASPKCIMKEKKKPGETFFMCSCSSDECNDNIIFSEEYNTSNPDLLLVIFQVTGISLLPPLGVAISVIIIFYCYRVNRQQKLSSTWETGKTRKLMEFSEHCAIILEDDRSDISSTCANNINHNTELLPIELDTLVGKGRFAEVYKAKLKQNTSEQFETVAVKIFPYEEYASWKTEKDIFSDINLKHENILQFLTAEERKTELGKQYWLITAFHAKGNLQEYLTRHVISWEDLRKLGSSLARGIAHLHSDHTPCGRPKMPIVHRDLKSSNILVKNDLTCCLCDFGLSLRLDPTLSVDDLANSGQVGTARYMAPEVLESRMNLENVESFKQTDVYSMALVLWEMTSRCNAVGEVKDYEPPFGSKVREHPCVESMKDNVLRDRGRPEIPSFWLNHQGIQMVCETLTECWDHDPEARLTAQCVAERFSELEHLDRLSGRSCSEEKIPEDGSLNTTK
Chain of Mitogen-activated protein kinase kinase kinase kinase 4 (Homo sapiens) (O95819 2-1239 limits assumed): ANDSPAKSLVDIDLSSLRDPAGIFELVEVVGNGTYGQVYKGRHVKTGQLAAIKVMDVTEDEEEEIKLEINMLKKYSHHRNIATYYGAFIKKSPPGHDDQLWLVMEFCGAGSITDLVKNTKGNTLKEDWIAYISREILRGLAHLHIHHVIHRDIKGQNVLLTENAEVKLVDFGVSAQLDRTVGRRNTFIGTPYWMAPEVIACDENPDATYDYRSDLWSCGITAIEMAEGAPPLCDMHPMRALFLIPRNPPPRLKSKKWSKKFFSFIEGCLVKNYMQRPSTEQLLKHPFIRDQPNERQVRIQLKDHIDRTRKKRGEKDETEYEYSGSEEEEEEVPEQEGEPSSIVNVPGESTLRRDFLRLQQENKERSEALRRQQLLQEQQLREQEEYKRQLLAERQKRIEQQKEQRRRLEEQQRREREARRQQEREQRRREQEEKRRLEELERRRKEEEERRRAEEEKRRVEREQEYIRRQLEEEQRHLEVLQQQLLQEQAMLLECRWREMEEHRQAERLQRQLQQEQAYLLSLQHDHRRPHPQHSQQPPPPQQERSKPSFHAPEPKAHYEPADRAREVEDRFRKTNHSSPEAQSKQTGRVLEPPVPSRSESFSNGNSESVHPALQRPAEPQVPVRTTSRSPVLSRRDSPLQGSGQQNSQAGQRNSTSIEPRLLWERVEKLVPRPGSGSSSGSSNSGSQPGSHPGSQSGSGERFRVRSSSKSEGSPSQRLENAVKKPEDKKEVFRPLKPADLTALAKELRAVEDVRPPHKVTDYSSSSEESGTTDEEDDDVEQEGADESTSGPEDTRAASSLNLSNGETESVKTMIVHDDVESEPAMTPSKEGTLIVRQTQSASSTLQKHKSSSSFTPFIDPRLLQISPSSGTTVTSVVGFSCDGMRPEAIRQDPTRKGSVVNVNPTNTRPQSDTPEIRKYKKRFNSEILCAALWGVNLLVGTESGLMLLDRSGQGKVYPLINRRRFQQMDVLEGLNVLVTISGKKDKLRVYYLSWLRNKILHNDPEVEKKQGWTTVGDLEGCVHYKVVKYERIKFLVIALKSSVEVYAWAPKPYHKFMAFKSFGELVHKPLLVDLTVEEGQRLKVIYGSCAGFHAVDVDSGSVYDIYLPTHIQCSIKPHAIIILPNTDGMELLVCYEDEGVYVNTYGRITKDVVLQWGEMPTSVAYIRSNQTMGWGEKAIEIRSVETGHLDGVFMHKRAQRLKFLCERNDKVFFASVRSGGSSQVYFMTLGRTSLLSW
Chain of Cyclin-dependent kinase 7 (P50613 whole entry): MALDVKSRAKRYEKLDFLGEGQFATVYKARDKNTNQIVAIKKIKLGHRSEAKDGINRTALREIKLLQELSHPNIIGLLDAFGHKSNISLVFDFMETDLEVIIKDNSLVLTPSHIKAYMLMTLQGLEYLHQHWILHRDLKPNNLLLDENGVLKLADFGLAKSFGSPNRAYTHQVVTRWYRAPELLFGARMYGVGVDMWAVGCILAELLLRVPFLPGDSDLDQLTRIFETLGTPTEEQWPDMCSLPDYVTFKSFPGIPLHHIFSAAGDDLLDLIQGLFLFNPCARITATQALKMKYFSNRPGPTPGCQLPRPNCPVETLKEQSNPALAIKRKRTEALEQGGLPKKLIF
Chain of Inhibitor of nuclear factor kappa-B kinase subunit alpha (Homo sapiens) (O15111 whole entry): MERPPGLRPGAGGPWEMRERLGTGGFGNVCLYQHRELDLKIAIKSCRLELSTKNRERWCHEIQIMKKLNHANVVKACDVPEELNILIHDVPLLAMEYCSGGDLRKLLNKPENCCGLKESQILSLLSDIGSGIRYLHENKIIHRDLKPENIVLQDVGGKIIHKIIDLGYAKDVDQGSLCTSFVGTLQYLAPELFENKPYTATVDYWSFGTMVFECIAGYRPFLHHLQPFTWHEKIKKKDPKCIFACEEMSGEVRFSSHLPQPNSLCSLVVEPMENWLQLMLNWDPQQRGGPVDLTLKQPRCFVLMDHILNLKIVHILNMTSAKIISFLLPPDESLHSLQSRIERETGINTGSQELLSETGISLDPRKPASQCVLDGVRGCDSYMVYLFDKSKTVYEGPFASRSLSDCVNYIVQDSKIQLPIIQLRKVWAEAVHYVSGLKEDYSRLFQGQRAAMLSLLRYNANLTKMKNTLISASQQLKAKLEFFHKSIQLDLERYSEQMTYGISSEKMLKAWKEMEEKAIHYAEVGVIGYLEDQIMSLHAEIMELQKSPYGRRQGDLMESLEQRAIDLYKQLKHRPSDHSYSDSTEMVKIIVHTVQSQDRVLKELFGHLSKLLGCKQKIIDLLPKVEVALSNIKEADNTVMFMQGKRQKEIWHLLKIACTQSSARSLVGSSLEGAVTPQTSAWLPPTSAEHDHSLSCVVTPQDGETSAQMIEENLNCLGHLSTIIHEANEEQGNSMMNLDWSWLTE
Chain of Cyclin-dependent kinase 9 (P50750 whole entry): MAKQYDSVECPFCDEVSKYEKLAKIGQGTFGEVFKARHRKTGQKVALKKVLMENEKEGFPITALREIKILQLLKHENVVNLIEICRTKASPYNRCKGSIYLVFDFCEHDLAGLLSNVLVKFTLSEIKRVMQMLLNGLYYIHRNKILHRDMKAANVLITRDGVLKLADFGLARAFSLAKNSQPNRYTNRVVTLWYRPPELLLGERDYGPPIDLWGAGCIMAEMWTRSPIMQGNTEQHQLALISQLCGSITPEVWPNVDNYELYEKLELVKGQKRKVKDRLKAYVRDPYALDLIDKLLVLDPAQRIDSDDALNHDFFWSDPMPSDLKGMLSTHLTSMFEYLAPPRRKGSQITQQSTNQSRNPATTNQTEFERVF
Chain of Homeodomain-interacting protein kinase 1 (Homo sapiens) (Q86Z02 whole entry, looked up): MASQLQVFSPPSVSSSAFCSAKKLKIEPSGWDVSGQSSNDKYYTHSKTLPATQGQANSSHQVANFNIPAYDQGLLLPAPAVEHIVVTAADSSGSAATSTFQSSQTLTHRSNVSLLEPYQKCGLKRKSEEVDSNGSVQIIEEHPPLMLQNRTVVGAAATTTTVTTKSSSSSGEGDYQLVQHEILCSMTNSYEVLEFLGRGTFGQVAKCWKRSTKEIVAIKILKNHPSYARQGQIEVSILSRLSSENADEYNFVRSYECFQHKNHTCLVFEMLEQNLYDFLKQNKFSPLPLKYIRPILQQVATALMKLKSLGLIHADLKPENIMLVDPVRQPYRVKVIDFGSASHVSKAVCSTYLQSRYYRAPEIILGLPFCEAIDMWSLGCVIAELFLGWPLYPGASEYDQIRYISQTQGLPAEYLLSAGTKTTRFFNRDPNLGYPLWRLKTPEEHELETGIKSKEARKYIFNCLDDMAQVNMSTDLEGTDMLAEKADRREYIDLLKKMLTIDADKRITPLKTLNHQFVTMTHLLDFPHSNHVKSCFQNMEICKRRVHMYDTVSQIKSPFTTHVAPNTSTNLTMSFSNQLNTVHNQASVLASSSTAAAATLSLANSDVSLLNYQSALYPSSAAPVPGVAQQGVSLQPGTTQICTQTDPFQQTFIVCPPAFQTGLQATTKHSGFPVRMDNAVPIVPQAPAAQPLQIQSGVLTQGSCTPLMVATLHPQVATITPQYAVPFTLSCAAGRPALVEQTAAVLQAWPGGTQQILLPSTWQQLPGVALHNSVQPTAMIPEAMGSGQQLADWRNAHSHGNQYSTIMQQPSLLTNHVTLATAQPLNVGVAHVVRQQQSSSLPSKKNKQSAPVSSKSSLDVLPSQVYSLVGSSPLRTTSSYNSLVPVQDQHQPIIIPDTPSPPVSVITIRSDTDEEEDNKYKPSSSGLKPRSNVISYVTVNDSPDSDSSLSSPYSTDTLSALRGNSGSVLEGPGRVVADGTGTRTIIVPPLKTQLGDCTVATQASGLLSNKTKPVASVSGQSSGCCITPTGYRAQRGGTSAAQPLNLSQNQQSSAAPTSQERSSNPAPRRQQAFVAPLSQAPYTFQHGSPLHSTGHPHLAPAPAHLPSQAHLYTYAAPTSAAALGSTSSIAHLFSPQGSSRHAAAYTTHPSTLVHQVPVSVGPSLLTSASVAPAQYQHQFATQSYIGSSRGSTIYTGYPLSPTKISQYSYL
Chain of Cyclin-dependent kinase 6 (Q00534 whole entry): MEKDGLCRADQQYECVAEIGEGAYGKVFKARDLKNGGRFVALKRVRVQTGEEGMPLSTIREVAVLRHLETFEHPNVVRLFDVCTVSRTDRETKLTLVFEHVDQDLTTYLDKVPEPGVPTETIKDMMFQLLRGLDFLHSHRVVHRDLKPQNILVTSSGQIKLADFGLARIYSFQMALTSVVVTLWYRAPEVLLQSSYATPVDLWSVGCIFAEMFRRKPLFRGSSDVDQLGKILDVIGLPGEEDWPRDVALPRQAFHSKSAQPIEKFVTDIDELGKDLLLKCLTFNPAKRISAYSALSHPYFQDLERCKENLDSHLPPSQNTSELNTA

`CC(C)n1nnc2ccc(-c3ccnc(Nc4cc(C(=O)N5CCCN(C)CC5)ccn4)c3)cc21` gave an inhibition [1] of less than 50%, a pIC50 [2] of 8.54 and a GI50 (HCT-116 [3]) of 50 nM. It also gave an inhibition [4] of less than 50%, a half-life [5] of 317 min and a GI50 (HT-29) of 560 nM. For the same compound, the Activity (HCT-116 [6]) was “Dose-Dependent Effect”, the Activity [7] was “Non-Toxic” and the MRT inf [8] was 1.77 h. For the same compound, the inhibition [9] was less than 50%, the Activity [10] was “Non-Toxic” and the Activity (HCT-116 [11]) was “Active”. The Vd [12] was 13.4 L/kg, the Activity (HCT-116 [13]) was “Dose-Dependent Effect” and the Activity (HCT-116 [14]) was “Active”. The pIC50 [15] was less than 6.30, the AUC(0-t) [16] was 168 ng·h/mL and the inhibition [17] was less than 50%. The Cmax [18] was 358 ng/mL, the AUC(0-inf) [19] was 373 ng·h/mL and the Activity (HCT-116 [20]) was “Active”. For the same compound, the AUC(0-inf) [21] was 199 ng·h/mL, the Tmax [22] was 4.98 min and the pIC50 [23] was less than 6.30. The MRT inf [24] was 7.02 h, the Activity (HCT-116 [25]) was “Active” and the inhibition [26] was less than 50%. For the same compound, the inhibition [27] was less than 50%, the pIC50 [28] was 6.68 and the pIC50 [29] was less than 6.30. For the same compound, the pIC50 [30] was less than 6.30, the half-life [31] was 102 min and the inhibition (HCT-116 [32]) was “Dose-Dependent Effect”. For the same compound, the MRT last [33] was 1.48 h, the inhibition [34] was less than 50% and the Activity [35] was “Non-Toxic”. The RatioGI50 [36] was 173.46.
